Assay results taken from the NIST ThermoML archive (doi:10.1021/je060108f).

Tests used:
[1] = wn = mass fraction of the nth substance listed; conditions: 101 kPa, Liquid
[2] = 101 kPa, Liquid

CN(CCO)CCO [N-methyldiethanolamine] + O
[1]
Conditions | mass density, w1 = 0.1 [kg/m3] | mass density, w1 = 0.2 [kg/m3] | mass density, w1 = 0.3 [kg/m3] | mass density, w1 = 1 [kg/m3] | viscosity, w1 = 0.1 [mPa·s] | viscosity, w1 = 0.2 [mPa·s] | viscosity, w1 = 0.3 [mPa·s] | viscosity, w1 = 1 [mPa·s]
288 K | 1007.9 | 1016.7 | 1030.7 | 1044.1 | 1.703 | 2.624 | 4.399 | 142.02
313 K | 1000.4 | 1008.6 | 1019.3 | 1027.2 | 0.899 | 1.305 | 1.929 | 34.73
333 K | 990.2 | 999.5 | 1007.1 | 1012.6 | 0.63 | 0.86 | 1.218 | 14.66

CN(CCO)CCO [N-methyldiethanolamine]
[2]
Conditions | mass density [kg/m3] | viscosity [mPa·s]
288 K | 1044.1 | 142.02
313 K | 1027.2 | 34.73
333 K | 1012.6 | 14.66

OCCC1CCCCN1 (stereo not given) [2-(2-hydroxyethyl)piperidine] + O
[1]
Conditions | mass density [kg/m3] | viscosity [mPa·s]
288 K, w1 = 0.05 | 1001.8 | 1.364
288 K, w1 = 0.1 | 1004.7 | 1.775
288 K, w1 = 0.15 | 1005 | 2.313
288 K, w1 = 0.2 | 1011.1 | 2.935
288 K, w1 = 0.25 | 1014.5 | 3.921
288 K, w1 = 0.3 | 1017.3 | 5.218
293 K, w1 = 0.05 | 1000.1 | 1.298
293 K, w1 = 0.1 | 1002.3 | 1.655
293 K, w1 = 0.15 | 1003.2 | 2.097
293 K, w1 = 0.2 | 1008.3 | 2.696
293 K, w1 = 0.25 | 1012.5 | 3.506
293 K, w1 = 0.3 | 1014.9 | 4.697
298 K, w1 = 0.05 | 998.9 | 1.116
298 K, w1 = 0.1 | 1001.6 | 1.423
298 K, w1 = 0.15 | 1002.4 | 1.762
298 K, w1 = 0.2 | 1005.9 | 2.289
298 K, w1 = 0.25 | 1010.1 | 2.968
298 K, w1 = 0.3 | 1012.7 | 3.858
303 K, w1 = 0.05 | 997.6 | 1.064
303 K, w1 = 0.1 | 999.6 | 1.316
303 K, w1 = 0.15 | 1001.4 | 1.599
303 K, w1 = 0.2 | 1003.7 | 2.037
303 K, w1 = 0.25 | 1007.5 | 2.603
303 K, w1 = 0.3 | 1009.6 | 3.429
308 K, w1 = 0.05 | 996 | 0.959
308 K, w1 = 0.1 | 997.4 | 1.216
308 K, w1 = 0.15 | 998.9 | 1.489
308 K, w1 = 0.2 | 1001.7 | 1.869
308 K, w1 = 0.25 | 1003.1 | 2.382
308 K, w1 = 0.3 | 1006.4 | 3.069
313 K, w1 = 0.05 | 994.3 | 0.828
313 K, w1 = 0.1 | 996.5 | 1.015
313 K, w1 = 0.15 | 997.9 | 1.253
313 K, w1 = 0.2 | 999.3 | 1.511
313 K, w1 = 0.25 | 999.9 | 1.938
313 K, w1 = 0.3 | 1001.8 | 2.468
318 K, w1 = 0.05 | 992.4 | 0.776
318 K, w1 = 0.1 | 994.2 | 0.965
318 K, w1 = 0.15 | 995.5 | 1.156
318 K, w1 = 0.2 | 996.7 | 1.429
318 K, w1 = 0.25 | 998.8 | 1.795
318 K, w1 = 0.3 | 1000.2 | 2.229
323 K, w1 = 0.05 | 990.3 | 0.684
323 K, w1 = 0.1 | 991.7 | 0.828
323 K, w1 = 0.15 | 993.5 | 0.995
323 K, w1 = 0.2 | 994.7 | 1.193
323 K, w1 = 0.25 | 996.1 | 1.523
323 K, w1 = 0.3 | 997.3 | 1.891
328 K, w1 = 0.05 | 987.7 | 0.651
328 K, w1 = 0.1 | 988.7 | 0.778
328 K, w1 = 0.15 | 990.6 | 0.975
328 K, w1 = 0.2 | 991.9 | 1.173
328 K, w1 = 0.25 | 993 | 1.39
328 K, w1 = 0.3 | 994.3 | 1.769
333 K, w1 = 0.05 | 983.5 | 0.585
333 K, w1 = 0.1 | 985.9 | 0.695
333 K, w1 = 0.15 | 987.9 | 0.837
333 K, w1 = 0.2 | 988.7 | 1.013
333 K, w1 = 0.25 | 990.3 | 1.229
333 K, w1 = 0.3 | 991.3 | 1.536
